For data set [1] the following is noted: cited from earlier work.
In the next data set the test system is PC12 cells. Put plainly: Fluorescence determination of number of living cells and amount of neurite outgrowth (neurite outgrowth staining kit). The data set is classed as cell-based. As to the method:
A test was carried out at five concentrations (1.6, 8, 40, 200 and 1,000 μg/mL) of 1,5-AG. Stated more specifically, a 1,5-AG aqueous solution having a concentration of 100 mg/mL was diluted with water to prepare 100 times-concentrated solutions having concentrations of 0.16, 0.8, 4, 20 and 100 mg/mL. These 100 times-concentrated solutions were each added to a test medium in a ratio of 1/100 to achieve final concentrations of 1.6, 8, 40, 200 and 1,000 μg/mL and sterilized with a filter to be used in the test. As a negative control, water was added to a medium in a ratio of 1/100 and sterilized with a filter to be used in the test. As a positive control, a test medium containing a 100 ng/mL nerve growth factor (NGF) was used.
A growth medium was used to adjust the cells to a concentration of 2.0×10^3 cells/100 μL/well, and the cells were scattered in a collagen-coated 96-well plate to be cultured in a CO2 incubator (5% CO2, 37° C., moistening) for 24 hours. After culture, the medium was replaced by a sample-containing test medium (100 μL), and the cells were cultured in a CO2 incubator for 96 hours. After the end of culture, an image of the cells in each well was taken with a phase difference microscope and used for the measurement of nuetrite outgrowth rate, and nuclei and cytoplasms were fluorescent dyed by using a neurite outgrowth staining kit to measure the number of living cells and the amount of neurite outgrowth. These procedures were carried out five times each.
After the end of culture, the number of living cells and the amount of neurite outgrowth were determined by using a neurite outgrowth staining kit. Stated more specifically, after the medium was removed, 100 μL of a staining solution (prepared by diluting Cell Viability Indicator and Cell Membrane Stain attached to the kit with calcium magnesium-containing PBS 1,000 times) was added to each well to incubate the cells at 37° C. for 20 minutes. After incubation, the staining solution was removed, 100 μL of a background suppression solution (prepared by diluting the background suppression dye attached to the kit with calcium magnesium-containing PBS 100 times) was added to each well so as to measure fluorescence intensity with a micro plate reader (measurement of the number of living cells: excitation wavelength of 495 nm, fluorescence wavelength of 515 nm, measurement of the amount of neurite outgrowth: excitation wavelength of 555 nm, fluorescent wavelength of 565 nm).

A further data set has as its system mesenchymal stem cells. Put plainly: GeneChip analysis using mesenchymal stem cells. Particulars: 1,5-AG reduced from 40 μg/mL to 1 μg/mL or less, 10th day. The data set is classed as cell-based, human. As to the method: GeneChip analysis using mesenchymal stem cells was carried out to clarify the function of 1,5-AG in a human. After 1,5-AG was added to a medium to ensure that the final concentration of 1,5-AG became not more than 1 μg/mL or 40 μg/mL and the mesenchymal stem cells were cultured for 10 days, total RNA was collected to carry out GeneChip analysis so as to analyze genes which were expressed and fluctuated according to the difference in the amount of 1,5-AG cyclopaedically. A similar test was carried out 3 times to obtain results which were then summarized and analyzed. The test was carried out by the following method.
Crystalline 1,5-AG was dissolved in pure water to a concentration of 40 mg/mL and filtered with a centrifugal ultrafiltration membrane having a molecular weight cut-off of 3,000 to remove trace macromolecules.
Mesenchymal cells derived from bone marrow (Riken Cell Bank, Resource No. MSC-R46)
DMEM prepared by adding 10% fetal bovine serum (FBS) and a 3 ng/mL fibroblast growth factor (FGF-2) (to be referred to as “growth medium” hereinafter) was used for the preculture of the mesenchymal stem cells. 10% FBS-added DMEM (to be referred to as “test medium” hereinafter) was used in this test. FGF-2 has the function of keeping the undifferentiated state of the mesenchymal stem cells, and the undifferentiated state of the cells was maintained by using the FGF-2-added medium during preculture. In this test, to analyze the differentiation-inducing effect of the sample, a medium containing no FGF-2 was used.
The human mesenchymal cells were initiated in a T-75 flask by using the growth medium and cultured in a CO2 incubator (5% CO2, 37° C., moistening). Medium exchange was carried out every 2 days, and the cells were separated by using 0.25% Trypsin/EDTA when 80% confluence was reached and collected to be used in this test.
The sample was added to a test medium to ensure that the final concentration of 1,5-AG became 40 μg/mL. […]

The test system of data set [2] is type 2 diabetes model mice. Particulars: mouse, in vivo; cited from earlier work.
The mark [3] stands for this setting: excessive amount of 1,5-AG taken as food.

Consider `OC[C@H]1OC[C@H](O)[C@@H](O)[C@@H]1O` [1,5-AG, 1,5-anhydro-D-glucitol], for which, in data set [1] (setting [3]), the “temporary rise of the concentration of 1,5-AG in the blood” value was “about 100 times” and the “time for the 1,5-AG level in the blood to return to the original level” value is on record as “about 24 hours”. For the same compound, the “time for the 1,5-AG level in the blood to return to the original value” in data set [1] (ingested temporarily, for example 20 g, eliminated through urine) is listed as “about 24 hours”. In the data set with PC12 cells (8 μg/mL section), the “amount of neurite outgrowth as compared with the non-added section” value is reported as 113.4%. For the same compound, in the data set on PC12 cells (40 μg/mL section), the “amount of neurite outgrowth as compared with the non-added section” value came to 113.3%. The “number of living cells” value with PC12 cells (all test sections versus negative control, 96 hours) is on record as “about the same as that of a negative control”. Also, in the data set with mesenchymal stem cells, the “expression of CSH-1” value is on record as “decreases as well” and the “expression of interleukin 6 signal transducer (IL6ST) gene” value is “reduced most”. In the data set with mesenchymal stem cells (rank among genes whose expression was reduced), the “expression of pregnancy specific beta-1-glycoprotein 1 (PSG-1) gene” value is given as “observed after these”. Besides, the anti-inflammatory effect entry in data set [2] is given as “anti-inflammatory effect”.
